{"source": "patent US4163799A", "about": "“Psychostimulant compounds” (Union Chimique Continentale U.C.C., priority 1975, dated 1979)", "key": {"[1]": {"test": "Determination of acute toxicity in the mouse (LD50, Behrens and Karber method)", "design": "species or system mouse (male, Swiss NMRI)", "details": "in vivo", "description": "(§1) All the experiments described below were carried out on male rats weighing between 170 and 220 g (Wistar AF strain) and male mice weighing between 18 and 23 g (Swiss NMRI strain), unless indicated to the contrary. All the experiments were conducted in a constant-temperature laboratory (22±1° C.). […] Unless indicated to the contrary 10 animals per batch were always used."}, "[2]": {"test": "Modification of hypnotic effects (pentobarbital), rat", "type": "in vivo, rat (male, Wistar AF)", "details": "16, 32, 64 mg/kg orally, with or 60 minutes before pentobarbital", "description": "as §1"}, "[3]": {"test": "Interaction with convulsants: electric shock", "type": "in vivo, mouse (male, Swiss NMRI)", "details": "4, 16, 64 mg/kg orally 60 minutes before electric shock", "description": "as §1"}, "[4]": {"test": "Modification of hypnotic effects (pentobarbital), mouse", "type": "in vivo, mouse (male, Swiss NMRI)", "details": "16, 32, 64 mg/kg orally, with or 60 minutes before pentobarbital", "description": "as §1"}, "[5]": {"test": "Hot plate test with the mouse", "type": "in vivo, mouse (male, Swiss NMRI)", "description": "as §1\nThis test was used to measure the reaction time of the animals to a painful stimulus. Ten animals were used per point. Fifteen minutes after oral administration of NaAHDH (32 mg/kg) the reaction time (licking of front paws) of the mice exposed to the hot plate was 5.8 seconds while that of the controls was 7.3 seconds (significant difference at the 0.05 threshold)."}, "[6]": {"test": "Interaction with convulsants: cardiazol", "type": "in vivo", "details": "64 mg/kg orally 30 minutes before cardiazol 160 mg/kg SC", "description": "as §1"}}, "note": "Counter-ions that a name gives are not always drawn.", "data": [{"smiles": "CC(O)CC(c1ccccc1)C(C(=O)O)c1ccccc1", "note": "(stereo not drawn) [NaAHDH, Sodium Salt of 5-Hydroxy-2,3-Diphenyl-Hexanoic Acid]", "values": [{"measurement": "LD50", "setting": "[1]; ip, intraperitoneally", "value": 175, "unit": "mg/kg"}, {"measurement": "LD50", "setting": "[1]; po, administered orally", "value": 998, "unit": "mg/kg"}, {"measurement": "time taken to fall asleep or length of sleep", "setting": "[2]", "value": "no modification to the time taken to fall asleep or the length of sleep"}, {"measurement": "duration or appearance of the convulsions", "setting": "[3]", "value": "modified neither the duration nor appearance of the convulsions"}, {"measurement": "motility after the convulsion", "setting": "[3]", "value": "no increase in motility after the convulsion"}, {"measurement": "time taken to fall asleep or length of sleep", "setting": "[4]", "value": "no modification to the time taken to fall asleep or the length of sleep"}, {"measurement": "effects of an analgesic dose of morphine on hot plate test", "setting": "[5]; 32 mg/kg, with morphine", "value": "did not increase or decrease the effects of an analgesic dose of morphine"}, {"measurement": "reaction time (licking of front paws)", "setting": "[5]; 15 min after 32 mg/kg orally, controls 7.3 seconds, significant at 0.05", "value": 5.8, "unit": "s"}, {"measurement": "latency of convulsions", "setting": "[6]", "value": "no decrease in the latency of convulsions"}]}]}
